# In article PMC11679574, “Intestinal Cells-on-Chip for Permeability Studies” (Micromachines, 2024):
# Where two headings read alike, the source gives them in different places.
# Columns and labels:
# [1] = test system: glucuronosyltransferases (UGTs); experiment: Phase II metabolism of 7-hydroxycoumarin in enteroid monolayers, chip system; assay type: in vitro ADME, human; conditions: enteroids, 12 µM
# Method: To add the culture disc with cells into the system, it was transferred to a biosafety cabinet, the chips were opened from the top and the discs were added to the chip, after which they were closed using a twisting cap mechanism. Sufficient medium was added to the chip to ensure no air bubbles were trapped during this procedure. Flow speed was adjusted to 17 µL/min and the system was placed back into a cell culture incubator (37 °C, 5% CO2). After a short period of equilibration, transport medium (with/without compound of interest) was added to apical and basolateral reservoirs, with the basolateral medium containing 4% BSA. The medium volumes in the reservoirs depended on the duration of the experiment and the sample volumes required but were between 5 and 6.5 mL. To completely replace the medium inside the tubing and chip with fresh transport medium, the system was run without medium recirculation for 30 min prior to the start of measurements. Details on the permeability measurements are described below. […]
# (§1) For quantification, a standard of parental compounds and metabolites was prepared in the same medium as samples. […] A limit of quantification (LOQ) was determined for each compound based on the standard curve and a limit of detection (LOD) was determined based on a noise signal. […] Recovery was calculated as the percentage of original dose added to the system.
# [2] = test system: glucuronosyltransferases (UGTs); experiment: Phase II metabolism of 7-hydroxycoumarin in enteroid monolayers, static Transwell; assay type: in vitro ADME, human; conditions: enteroids, 12 µM
# Method: (§2) For specific inhibition, 5 µM elacridar and 5 µM ketoconazole (both Sigma-Aldrich, Zwijndrecht, The Netherlands) were used. The drug cocktail was added to the apical medium reservoirs of chip experiments (flow) and the apical insert of static Transwell inserts. Inhibitors were added to both apical dose solution and basolateral transport buffer. During experiments, samples were collected at different timepoints from both apical and basolateral medium reservoirs, mixed with equal volume of ultrapure MeOH and stored at −20 °C until analysis by LC-MS/MS.
# (§3) For quantification, a standard of parental compounds and metabolites was prepared in the same medium as samples. Metabolites included were 1’-hydroxymidazolam (Sigma-Aldrich) and 7-hydroxycoumarin glucuronide (LGC Standards, OLY, UK). Both standard and samples were centrifuged for 10 min at 1500× g to precipitate protein, and subsequently, 1 µL was injected. […] A limit of quantification (LOQ) was determined for each compound based on the standard curve and a limit of detection (LOD) was determined based on a noise signal. For each experiment, corresponding dose and blanks were included in measurements. Recovery was calculated as the percentage of original dose added to the system.
# (§4) All static control experiments were performed in cell monolayers cultured on transparent Transwell inserts (Corning, Life Sciences BV, Amsterdam, The Netherlands). […]
# [3] = no reference given; cited from earlier work
# [4] = Permeability in cell-on-chip system under laminar flow, enteroid monolayers; conditions: human
# Method: (§5) To add the culture disc with cells into the system, it was transferred to a biosafety cabinet, the chips were opened from the top and the discs were added to the chip, after which they were closed using a twisting cap mechanism. Sufficient medium was added to the chip to ensure no air bubbles were trapped during this procedure. Flow speed was adjusted to 17 µL/min and the system was placed back into a cell culture incubator (37 °C, 5% CO2). After a short period of equilibration, transport medium (with/without compound of interest) was added to apical and basolateral reservoirs, with the basolateral medium containing 4% BSA. The medium volumes in the reservoirs depended on the duration of the experiment and the sample volumes required but were between 5 and 6.5 mL. To completely replace the medium inside the tubing and chip with fresh transport medium, the system was run without medium recirculation for 30 min prior to the start of measurements. Details on the permeability measurements are described below.
# (§6) Leakage to the basolateral medium was determined using the BioTek Synergy H1 microplate reader (BioSPX, Abcoude, The Netherlands). […] Apparent permeability values (Papp) were calculated according to Equation (1):(1) Papp=dQ/dt×(1/A×C0) in which dQ/dt is the amount of drug transported over the barrier (ng/sec), A is the exposed area of the cell monolayer (cm^2) and C0 is the initial dose concentration of the compound (ng/mL). All measurements were performed under flow (17 µL/min), and the chip system was inside a cell culture incubator (37 °C, 5%CO2) during the entire experiment, as described in Section 2.6.
# (§7) Apical and basolateral medium reservoirs were sampled at t = 0, 1, 2 and 4 h. All measurements were performed under flow (17 µL/min), and the chip system was inside a cell culture incubator (37 °C, 5% CO2) during the entire experiment, as described in Section 2.6.
# as §2, §1
# in vitro = conditions: human
# Method: as §6, §7, §2, §3
# (§8) All static control experiments were performed in cell monolayers cultured on transparent Transwell inserts (Corning, Life Sciences BV, Amsterdam, The Netherlands). Procedures for seeding and culturing were exactly the same as previously reported. […] The only difference was in the volume of apical (100 µL) and basolateral (600 µL) compartment, which was accounted for in Papp calculations. All measurements were performed inside a cell culture incubator (37 °C, 5% CO2).
# [5] = Compound recovery, cell-on-chip system; assay type: in vitro ADME; conditions: human, read-out: Recovery, percentage of original dose
# CYP3A4 = CYP3A4 (Homo sapiens, UniProt P08684); experiment: Phase I metabolism of midazolam in enteroid monolayers, static Transwell; conditions: enteroids, static Transwell cultures
# Method: as §2, §3, §4
# enteroid monolayers [6] = experiment: Permeability in cell-on-chip system under laminar flow, enteroid monolayers
# Method: as §5, §6, §7, §2, §1
# enteroid monolayers [7] = experiment: in vitro
# Method: as §6, §7, §2, §3, §8
# Caco-2 monolayers = experiment: Permeability in static Transwell inserts, Caco-2 monolayers; assay type: in vitro ADME, human; conditions: static culture, intact Caco-2 monolayer
# Method: Leakage to the basolateral medium was determined using the BioTek Synergy H1 microplate reader (BioSPX, Abcoude, The Netherlands). FD4 was measured with an excitation/emission wavelength of 485 nm and 528 nm, and CB was measured at 365 nm and 412 nm, respectively. Apparent permeability values (Papp) were calculated according to Equation (1):(1) Papp=dQ/dt×(1/A×C0) in which dQ/dt is the amount of drug transported over the barrier (ng/sec), A is the exposed area of the cell monolayer (cm^2) and C0 is the initial dose concentration of the compound (ng/mL).
# All static control experiments were performed in cell monolayers cultured on transparent Transwell inserts (Corning, Life Sciences BV, Amsterdam, The Netherlands). […] The only difference was in the volume of apical (100 µL) and basolateral (600 µL) compartment, which was accounted for in Papp calculations. All measurements were performed inside a cell culture incubator (37 °C, 5% CO2).
# Chain of CYP3A4 (P08684 whole entry): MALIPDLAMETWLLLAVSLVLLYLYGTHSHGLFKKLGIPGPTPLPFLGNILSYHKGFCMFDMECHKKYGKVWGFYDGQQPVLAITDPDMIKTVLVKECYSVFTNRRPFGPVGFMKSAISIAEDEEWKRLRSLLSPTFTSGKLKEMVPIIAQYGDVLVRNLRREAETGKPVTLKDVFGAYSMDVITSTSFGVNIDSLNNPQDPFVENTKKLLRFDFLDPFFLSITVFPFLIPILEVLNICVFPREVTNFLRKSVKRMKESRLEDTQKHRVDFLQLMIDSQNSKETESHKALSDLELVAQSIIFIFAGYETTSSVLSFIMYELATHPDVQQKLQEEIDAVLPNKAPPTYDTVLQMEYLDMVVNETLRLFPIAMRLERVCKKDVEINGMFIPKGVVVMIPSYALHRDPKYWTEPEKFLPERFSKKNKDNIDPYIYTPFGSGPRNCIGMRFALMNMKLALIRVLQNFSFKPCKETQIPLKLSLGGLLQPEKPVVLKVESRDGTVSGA
compound,measurement,setting,value
"O=c1ccc2ccc(O)cc2o1 [7OH-coumarin, 7-hydroxycoumarin]",7-hydroxycoumarin glucuronide formation,[1],confirm UGT activity
same,7-hydroxycoumarin glucuronide formation,[2],confirm UGT activity
"Cc1cc(=O)n(-c2ccccc2)n1C [Antipyrine, antipyrine]",fraction absorbed (Fa),[3],100%
"CC(C)NCC(O)COc1ccc(CC(N)=O)cc1 (stereo not drawn) [Atenolol, atenolol]",fraction absorbed (Fa),[3],50%
"CN(C)C(=N)N=C(N)N [Metformin, metformin]",Papp A→B,[4],4.6 ×10⁻⁶ cm/s
same,Papp A→B,in vitro,1.44 ×10⁻⁶ cm/s
"Cc1ncc2n1-c1ccc(Cl)cc1C(c1ccccc1F)=NC2 [Midazolam, midazolam]",recovery at 10 µM,[5]; chips containing translucent membranes,41%
same,recovery at 10 µM,[5]; chips with transparent membranes,11%
same,OH-midazolam formation,CYP3A4; in the presence of ketoconazole 5 µM,absent
same,OH-midazolam formation,CYP3A4; midazolam 10 µM,increase in OH-midazolam over time
"CC(C)c1nc(N(C)S(C)(=O)=O)nc(-c2ccc(F)cc2)c1/C=C/[C@@H](O)C[C@@H](O)CC(=O)O [Rosuvastatin, rosuvastatin]",Papp (in words),"enteroid monolayers [6]; enteroids, chip experiments, drug cocktail, 10 µM",low
same,Papp A→B,[4],1.11 ×10⁻⁶ cm/s
same,Papp (in words),enteroid monolayers [7],low
same,Papp A→B,in vitro,0.7 ×10⁻⁶ cm/s
Cascade Blue [CB],Papp,Caco-2 monolayers,0.5 ·10^−6 cm/s
same,Overall permeation compared to FD4,"enteroid monolayers [6]; chip system, overall over cell types and membranes",approximately 2 fold
same,Papp,"enteroid monolayers [7]; static culture, intact enteroid monolayer",0.08 ·10^−6 cm/s
Dextran-FITC 4 kDa [FD4],"Papp A to B, Static",enteroid monolayers [7],0.01 ×10⁻⁶ cm/s
